Laboratory results reported in patent US20050065213A1 (priority 2001, published 2005).
Where two headings read alike, the source gives them in different places.

Columns and labels:
[1] = system: K562 cell line; assay: Cytotoxicity (IC50) assay against the K562 cell line; format: cell-based; conditions: for activity (in words): cytotoxicity, qualitative statements; for IC50: Homo sapiens, K562 cell line, read-out: IC50 values in the cytotoxicity tests
Method: Compounds based on the aurone structure were prepared as conformationally restricted analogues of the chalcones. They were prepared from the appropriate benzofuranone.

[2] = system: tubulin; assay: Colchicine competition assay; format: binding
From the text: The compounds have been further tested for their performance in colchicine competition assays, and the results tabulated in Tables 9 to 13.

[3] = system: H460 human non small cell lung cells; assay: H460 xenograft in nude mice; format: in vivo
[4] = system: tubulin; assay: Tubulin assembly inhibition assay; format: biochemical
[5] = system: H460 xenograft; assay: H460 xenograft mice, X-Rays plus drug; format: in vivo; conditions: X-Ray plus drug treated group, FIG. 6
From the text: Whilst X-Ray treatment was effective immediately after treatment, fresh tumour growth became evident by 36 days.

[6] = Flow cytometry, percentage of cells in the phases of the cell cycle; format: cell-based; conditions: for % Cells G2-M: control 12.08; for % Cells S-phase: control 32.87; for % Cells G0-G1: control 55.05
From the text: Tables 14 and 15 show the results of tubulin assembly assays and flow cytometry studies on selected compounds of the present invention.

[7] = system: P388 murine leukaemia cell line; conditions: cell line not stated for this statement; cited from earlier work
[8] = tubulin assembly, corrected values scaled by a factor of 5, read-out: IC50 μM (corrected)
[9] = tubulin assembly, original experimental value, read-out: IC50 μM (original)
[10] = tubulin assembly assay, Table 14, read-out: IC(TA)50

SMILES	Colchicine competition, Drug:Protein Ratio 1:1 [2]	Colchicine competition, Drug:Protein Ratio 10:1 [2]	IC50 [4, 8] [µM]	IC50 [4, 9] [µM]	further results
COc1ccc(/C=C(\C)C(=O)c2cc(OC)c(OC)c(OC)c2)cc1F [DR5, (E)-3-(3″-Fluoro-4″-methoxyphenyl)-2-methyl-1-(3′,4′,5′-trimethoxyphenyl)-2-propen-1-one]	14	6	3.5	0.7	activity (in words) [1]: most active fluorinated analogue; necrosis in tumour ([3]; 24 hours after treatment with 0.75 MTD): necrosis in H460 cancer cells; adverse side effects on healthy surrounding tissue ([3]; H460 xenograft nude mice): no adverse side effects on healthy surrounding tissue; tumour volume / potency with concomitant X-Rays [5]: some initial increase in tumour volume between days 27 and 32, though this was followed by subsequent decrease to a steady baseline at day 34; tumour volume / potency with concomitant X-Rays ([5]; listed as DRA 212): Further improvement in the potency
COc1cc(C(=O)/C(C)=C/c2cc(F)c(OC)c(F)c2)cc(OC)c1OC [DR6, (E)-3-(3″, 5″-Difluoro-4″-methoxyphenyl)-2-methyl-1-(3′, 4′,5′-trimethoxyphenyl)-2-propen-1-one]	33	25	12	2.4	
COc1ccc(C=CC(=O)c2ccc(OC)c(OC)c2OC)cc1O [DR8, (E)-3-(3″-Hydroxy-4″-methoxyphenyl)-1-(2′,3′,4′-trimethoxyphenyl)-2-propen-1-one]			2.3	0.45	melting point: 85 to 86 °C
CO/C(=C\c1ccc(OC)c(O)c1)C(=O)c1cc(OC)c(OC)c(OC)c1 [DR13, (Z)-3-(3″-Hydroxy-4″-methoxyphenyl)-2-methoxy-1-(3′,4′,5′-timethoxyphenyl)-2-propen-1-one]	12	5	2.6	0.51	melting point: 120 to 122 °C
CO/C(=C\c1ccc(OC)c(F)c1)C(=O)c1cc(OC)c(OC)c(OC)c1 [DR14, (Z)-3-(3″-Fluoro-4″-methoxyphenyl)-2-methoxy-1-(3′,4′,5′-trimethoxyphenyl)-2-propen-1-one]	22	8	2.4	0.47	melting point: 110 to 112 °C
CO/C(=C\c1cc(F)c(OC)c(F)c1)C(=O)c1cc(OC)c(OC)c(OC)c1 [DR15, (Z)-3-(3″,5″-Difluoro-4″-methoxyphenyl)-2-methoxy-1-(3′,4′,5′-trimethoxyphenyl)-2-propen-1-one]	59	41	8.5	1.7	
COc1ccc(C=C2Oc3cc(OC)c(OC)c(OC)c3C2=O)cc1O [DR23]			> 100	> 50	
COc1ccc(C=C2Oc3cc(OC)c(OC)c(OC)c3C2=O)cc1F [DR24]			> 100	> 50	
COc1ccc(/C=C2\Oc3c(cc(OC)c(OC)c3OC)C2=O)cc1O [DR27, 2-[(Z)-(3′-Hydroxy-4′-methoxyphenyl)methylidene]-5,6,7-trimethoxy-1-benzofuran-3-one]	78	59	> 100	22	IC50 [1]: 0.05 µM; melting point: 192 to 193 °C
COc1ccc(C=C2Oc3c(cc(OC)c(OC)c3OC)C2=O)cc1F [DR28]			> 100	> 50	IC50 [1]: 0.11 µM
COc1cc2c(c(OC)c1OC)OC(=Cc1ccc(O)c(O)c1)C2=O [DR31]			> 100	> 50	
COc1ccc(-c2cc(=O)c3c(OC)c(OC)c(OC)cc3o2)cc1O [DR33, 2-(3′-Hydroxy-4′-methoxyphenyl)-5,6,7-trimethoxy-4H-chromen-4-one]			> 100	> 50	
COc1ccc(-c2cc(=O)c3cc(OC)c(OC)c(OC)c3o2)cc1O [DR36, 2-(3′-Hydroxy-4′-methoxyphenyl)-6,7,8-trimethoxy-4H-chromen-4-one]	100	43	> 100	25	melting point: 199 to 200 °C
COc1ccc(C2CC(=O)c3cc(OC)c(OC)c(OC)c32)cc1F (stereo not drawn) [DR59]	100	61	20	4	
COc1ccc(C2CC(O)c3cc(OC)c(OC)c(OC)c32)cc1F (stereo not drawn) [DR60]			> 100	> 50	
COc1ccc(/C=C/C(=O)c2cc(OC)c(OC)c(OC)c2)cc1N [MW65, (E)-3-(3″-Amino-4″-methoxyphenyl)-1-(3′,4′,5′-trimethoxyphenyl)-2-propen-1-one]					% Cells Debris [6]: 14.10%; % Cells G2-M [6]: 18.52%; % Cells S-phase [6]: 33.18%; % Cells G0-G1 [6]: 48.30%; melting point: 90 to 91 °C
COc1ccc(/C=C(\C)C(=O)c2cc(OC)c(OC)c(OC)c2)cc1[N+](=O)[O-] [MW68]					% Cells Debris [6]: 11.27%; % Cells G2-M [6]: 28.29%; % Cells S-phase [6]: 35.36%; % Cells G0-G1 [6]: 36.35%; IC50 [4, 10]: > 10 µM
COc1ccc(/C=C(\C)C(O)c2cc(OC)c(OC)c(OC)c2)cc1O (stereo not drawn) [MW70]					% Cells Debris [6]: 15.27%; % Cells G2-M [6]: 23.70%; % Cells S-phase [6]: 32.80%; % Cells G0-G1 [6]: 43.50%; IC50 [4, 10]: > 10 µM
COc1ccc(CC(C)C(=O)c2cc(OC)c(OC)c(OC)c2)cc1O (stereo not drawn) [MW71]					% Cells Debris [6]: 19.31%; % Cells G2-M [6]: 28.08%; % Cells S-phase [6]: 36.09%; % Cells G0-G1 [6]: 35.84%; IC50 [4, 10]: 4 µM
COc1ccc(C2CC(=O)c3cc(OC)c(OC)c(OC)c32)cc1N (stereo not drawn) [MW74, 3-(3′-Amino-4′-methoxyphenyl)-4,5,6-trimethoxy-1-indanone]					% Cells Debris [6]: 12.72%; % Cells G2-M [6]: 29.10%; % Cells S-phase [6]: 33.76%; % Cells G0-G1 [6]: 37.14%; IC50 [4, 10]: ~10 µM
COc1ccc(C2CCc3cc(OC)c(OC)c(OC)c32)cc1N (stereo not drawn) [MW82]					% Cells Debris [6]: 18.58%; % Cells G2-M [6]: 23.34%; % Cells S-phase [6]: 36.26%; % Cells G0-G1 [6]: 40.40%; IC50 [4, 10]: > 10 µM
COc1ccc(/C=C/C(=O)c2cc(OC)c(OC)c(OC)c2)cc1OP(=O)([O-])[O-].[Na+].[Na+] [SD174a, Disodium 3′-phosphate salt of (E)-1-(3′-Hydroxy-4′-methoxyphenyl)-3-(3″,4″,5″-trimethoxyphenyl)prop-1-en-3-one]					activity (in words) [1]: potently active
COc1ccc(/C=C(\C)C(=O)c2cc(OC)c(OC)c(OC)c2)cc1OP(=O)([O-])[O-].[Na+].[Na+] [SD174b, Disodium 3′-phosphate salt of (E)-1-(3′-Hydroxy-4′-methoxyphenyl)-2-methyl-3-(3″,4″,5″-trimethoxyphenyl)prop-1-en-3-one]					activity (in words) [1]: potently active
COc1ccc(/C=C/c2cc(OC)c(OC)c(OC)c2)cc1O [trans-combretastatin A-4]					cell growth inhibition (in words) [7]: μM range
